20 molecules from ChEMBL document CHEMBL6182931, “Chemical Evolution of Aplithianine Class of Serine/Threonine Kinase Inhibitors” (J Med Chem, 2025) can be followed below.

In one data set the test system is MOLT-4. Put plainly: Antiproliferative activity against human MOLT-4 cells assessed as growth inhibition. Type of data set: functional.
The test system of the next data set is LOX IMVI. Description: Antiproliferative activity against human LOX IMVI cells assessed as growth inhibition. The format is functional.
The test system of a further data set is NCI/ADR-RES. Description: Antiproliferative activity against human NCI/ADR-RES cells assessed as growth inhibition. Type of data set: functional, cell-based.
The subject of another data set is OVCAR-4. Description: Antiproliferative activity against human OVCAR-4 cells assessed as growth inhibition. Type of data set: functional, cell-based.
Data set [1] in a line: Inhibition of DNAJB1-PKAcalpha (unknown origin) using biotinylated-peptide substrate CREB incubated for 45 mins in presence of ATP and cAMP by ELISA. Further details: species or system Homo sapiens. In general terms: In an ELISA, binding on a coated surface is turned into a signal by an enzyme label.
For the next data set, the system named is MDA-MB-468. Put plainly: Antiproliferative activity against human MDA-MB-468 cells assessed as growth inhibition. Type of data set: functional, cell-based.
Another data set has as its system SR. Put plainly: Antiproliferative activity against human SR cells assessed as growth inhibition. The format is functional.
Data set [2] deals with cAMP-dependent protein kinase catalytic subunit alpha (Homo sapiens) (UniProt P17612). The conditions noted are these: dose 50.0 nM.
Description: Inhibition of human PKAalpha at 50 nM in presence of ATP by radiometric Hotspot kinase assay relative to control
In data set [3] the target is Dual specificity protein kinase CLK1 (Homo sapiens) (UniProt P49759). Description: Inhibition of human CLK1 at 50 nM in presence of ATP by radiometric Hotspot kinase assay relative to control.
Data set [4] deals with T1, cGMP-dependent protein kinase 1 (Homo sapiens) (UniProt Q13976).
T1 sequence (whole entry): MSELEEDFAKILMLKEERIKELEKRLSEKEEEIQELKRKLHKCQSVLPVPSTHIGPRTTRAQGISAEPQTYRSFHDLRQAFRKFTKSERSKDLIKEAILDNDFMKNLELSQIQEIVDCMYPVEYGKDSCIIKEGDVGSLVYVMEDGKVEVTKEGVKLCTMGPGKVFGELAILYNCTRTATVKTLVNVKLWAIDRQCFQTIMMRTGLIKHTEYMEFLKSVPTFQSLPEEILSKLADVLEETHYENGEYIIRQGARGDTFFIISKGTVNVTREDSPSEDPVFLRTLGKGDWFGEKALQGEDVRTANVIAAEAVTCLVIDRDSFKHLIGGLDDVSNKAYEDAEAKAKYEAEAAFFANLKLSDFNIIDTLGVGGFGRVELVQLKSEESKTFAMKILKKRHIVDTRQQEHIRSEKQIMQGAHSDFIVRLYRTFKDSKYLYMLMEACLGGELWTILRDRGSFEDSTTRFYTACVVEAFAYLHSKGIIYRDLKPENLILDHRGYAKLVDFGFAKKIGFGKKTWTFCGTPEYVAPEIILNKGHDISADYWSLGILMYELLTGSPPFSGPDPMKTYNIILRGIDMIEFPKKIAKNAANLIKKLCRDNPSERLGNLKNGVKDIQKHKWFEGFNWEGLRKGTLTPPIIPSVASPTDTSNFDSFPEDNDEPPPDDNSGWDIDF
The conditions noted are these: dose 50.0 nM.
Description: Inhibition of human PKG1alpha at 50 nM in presence of ATP by radiometric Hotspot kinase assay

The target of data set [5] is cAMP-dependent protein kinase catalytic subunit beta (Homo sapiens) (UniProt P22694). Put plainly: Inhibition of human PKAbeta at 50 nM in presence of ATP by radiometric Hotspot kinase assay.
For a further data set, the target named is Albumin (Homo sapiens, UniProt P02768). Description: Binding affinity to human serum albumin assessed as protein binding at 10 uM by equilibrium dialysis technique relative to control. Type of data set: ADME. The conditions noted are these: isolated protein. (In general: In equilibrium dialysis free small molecules cross a membrane that holds back macromolecules.)

Data set [6] has as its target Dual specificity protein kinase CLK2 (Homo sapiens) (UniProt P49760). Description: Inhibition of human CLK2 at 50 nM in presence of ATP by radiometric Hotspot kinase assay relative to control.
For data set [7], the species on record is Homo sapiens. Description: Induction of thermal stabilization of His-tagged DNAJB1-PKAcalpha (unknown origin) incubated for 15 min by differential scanning fluorometric analysis. For orientation: Differential scanning fluorimetry follows unfolding on heating by fluorescence.
Data set [8] can be described thus: Inhibition of DNAJB1-PKAcalpha (unknown origin) overexpressed in mouse NIH/3T3 cells assessed as inhibition of CREB phosphorylation at Ser133 residue preincubated for 30 mins followed by forskolin addition and measured after 30 mins by fluorescence based multilabel reader analysis. Type of data set: cell-based. The conditions noted are these: NIH3T3.
For data set [9], the species on record is Homo sapiens. Put plainly: Induction of thermal stabilization of His-tagged DNAJB1-PKAcalpha (unknown origin) assessed as change in melting temperature incubated for 15 min by differential scanning fluorometric analysis.

The source made the active and inactive calls. No cut-off for these calls is given here.

Sequence of Dual specificity protein kinase CLK1 (Homo sapiens) (P49759 whole entry, looked up): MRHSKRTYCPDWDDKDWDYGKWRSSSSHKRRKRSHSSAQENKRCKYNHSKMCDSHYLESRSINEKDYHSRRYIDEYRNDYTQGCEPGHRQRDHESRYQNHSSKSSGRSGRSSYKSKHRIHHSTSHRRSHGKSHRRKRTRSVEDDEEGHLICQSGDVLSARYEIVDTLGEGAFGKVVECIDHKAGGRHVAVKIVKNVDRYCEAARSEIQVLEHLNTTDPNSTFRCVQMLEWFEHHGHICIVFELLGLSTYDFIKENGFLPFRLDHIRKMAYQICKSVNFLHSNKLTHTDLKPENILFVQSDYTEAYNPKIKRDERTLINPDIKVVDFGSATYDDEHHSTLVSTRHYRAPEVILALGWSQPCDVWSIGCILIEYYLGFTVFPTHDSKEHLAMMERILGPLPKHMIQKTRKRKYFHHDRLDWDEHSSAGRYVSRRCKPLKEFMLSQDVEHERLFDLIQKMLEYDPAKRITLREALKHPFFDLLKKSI
Sequence of Dual specificity protein kinase CLK2 (Homo sapiens) (P49760 whole entry, looked up): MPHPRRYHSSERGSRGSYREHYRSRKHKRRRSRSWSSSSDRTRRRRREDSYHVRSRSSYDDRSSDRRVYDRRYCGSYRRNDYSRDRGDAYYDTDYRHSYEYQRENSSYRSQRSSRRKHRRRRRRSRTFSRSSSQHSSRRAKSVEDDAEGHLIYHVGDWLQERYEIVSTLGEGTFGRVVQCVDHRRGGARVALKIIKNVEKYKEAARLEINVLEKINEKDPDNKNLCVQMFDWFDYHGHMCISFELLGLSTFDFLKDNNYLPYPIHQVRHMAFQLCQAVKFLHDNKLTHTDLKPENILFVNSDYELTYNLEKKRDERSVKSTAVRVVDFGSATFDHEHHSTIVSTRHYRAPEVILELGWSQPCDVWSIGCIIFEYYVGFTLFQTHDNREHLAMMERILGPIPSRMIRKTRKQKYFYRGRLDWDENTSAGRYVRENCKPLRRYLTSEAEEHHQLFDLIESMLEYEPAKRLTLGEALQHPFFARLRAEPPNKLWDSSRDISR
Sequence of Albumin (P02768 whole entry): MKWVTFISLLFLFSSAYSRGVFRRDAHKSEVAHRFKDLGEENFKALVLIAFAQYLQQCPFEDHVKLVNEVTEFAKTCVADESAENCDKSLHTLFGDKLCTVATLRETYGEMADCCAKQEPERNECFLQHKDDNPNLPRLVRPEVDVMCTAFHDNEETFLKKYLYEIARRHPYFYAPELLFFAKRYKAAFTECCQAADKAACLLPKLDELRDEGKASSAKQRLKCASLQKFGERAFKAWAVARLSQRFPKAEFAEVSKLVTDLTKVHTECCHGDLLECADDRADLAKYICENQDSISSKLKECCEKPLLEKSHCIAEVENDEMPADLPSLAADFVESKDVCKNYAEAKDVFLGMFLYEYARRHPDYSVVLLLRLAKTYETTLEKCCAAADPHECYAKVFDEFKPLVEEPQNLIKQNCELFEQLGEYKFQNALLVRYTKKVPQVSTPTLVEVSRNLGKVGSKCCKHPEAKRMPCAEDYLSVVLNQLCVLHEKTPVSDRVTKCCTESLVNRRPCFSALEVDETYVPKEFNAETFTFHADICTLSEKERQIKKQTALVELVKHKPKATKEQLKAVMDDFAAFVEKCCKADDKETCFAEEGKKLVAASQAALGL

Take `Cn1cc(C2=CN(c3ncnc4[nH]ccc34)CCS2)cn1`: the result in the data set with MOLT-4, in the data set with MDA-MB-468 and in the data set on SR was Active. In addition, in the data set with LOX IMVI, the GI50 is over 1000 nM. For the same molecule, the result in the data set with NCI/ADR-RES and with OVCAR-4 was inactive. Also, in data set [1], the IC50 came out at 440 nM.

`Cn1cncc1C1=CN(c2ccnc3[nH]ccc23)CCS1`: the outcome with MOLT-4, in the data set on MDA-MB-468 and in the data set on SR was Active. Moreover, the GI50 in the data set with LOX IMVI is over 1000 nM. The result in the data set with NCI/ADR-RES and in the data set with OVCAR-4 was inactive. In addition, in [1], the IC50 amounted to 860 nM. The molecule also showed an inhibition in [2] of 1.7%. The inhibition result in [3] and in data set [4] was “Active” throughout.

For the molecule `Cn1cncc1C1=CN(c2ncnc3[nH]cnc23)CCS1`, the inhibition entry in [5], in [6] and in [3] was “Active” in each case. Further, the PB at Albumin is reported as 98%.

With `C1=C(c2ccnc3[nH]ccc23)SCCN1c1ccncn1`, the Activity result in the data set listed under Homo sapiens [7] was “Dose-dependent-effect”. Further, the outcome in the data set on MOLT-4, in the data set with MDA-MB-468 and with SR was Active. In the data set with LOX IMVI, the GI50 is over 1000 nM. Besides, the outcome in the data set on NCI/ADR-RES and in the data set on OVCAR-4 was inactive. Besides, the IC50 in data set [8] was 282 nM; in data set [1], 6.3 nM. Besides, the ΔTm in the data set filed under Homo sapiens [9] was 7.9 °C.

As to `C1=C(c2ccnc3[nH]ccc23)SCCN1c1ncnc2occc12`, the result in the data set with MOLT-4, in the data set on MDA-MB-468 and with SR was Active. The GI50 in the data set on LOX IMVI is over 1000 nM. Besides, the outcome in the data set with NCI/ADR-RES and in the data set with OVCAR-4 was inactive. The IC50 in data set [1] amounted to 19 nM.

Consider `C1=C(c2ccnc3[nH]ccc23)SCCN1c1ncnc2sccc12`, for which the outcome in the data set with MOLT-4, in the data set on MDA-MB-468 and with SR was Active. Also, in the data set with LOX IMVI, the GI50 was over 1000 nM. Also, the outcome with NCI/ADR-RES and with OVCAR-4 was inactive. The IC50 in [1] amounted to 310 nM.

For the molecule `C[C@@]1(N)CCCN(C(=O)C2=CN(c3ncnc4[nH]ccc34)CCS2)C1`, the result with MOLT-4, in the data set with MDA-MB-468 and with SR was Active. Further, the GI50 in the data set on LOX IMVI was over 1000 nM. Moreover, the outcome with NCI/ADR-RES and with OVCAR-4 was inactive. Besides, in [8], the IC50 turned out to be 4400 nM.

Regarding `C[C@@H]1C[C@@H](N)CN(C(=O)C2=CN(c3ncnc4[nH]ccc34)CCS2)C1`, the result in the data set on MOLT-4, in the data set with MDA-MB-468 and in the data set with SR was Active. Further, the GI50 in the data set on LOX IMVI was over 1000 nM. Moreover, the result in the data set with NCI/ADR-RES and in the data set with OVCAR-4 was inactive. Also, the IC50 in [8] is 2700 nM; in data set [1] it was 6 nM.

In the case of `C[C@H]1CCN(C(=O)C2=CN(c3ncnc4[nH]ccc34)CCS2)C[C@@H]1N`, the results for the IC50 in [8] and in [1] were 2500 nM and 7 nM, respectively.

Turning to `Cc1cc(N2C=C(c3ccnc4[nH]ccc34)SCC2)ncn1`, the outcome with MOLT-4, in the data set on MDA-MB-468 and in the data set with SR was Active. Besides, the GI50 in the data set with LOX IMVI was over 1000 nM. Further, the result in the data set on NCI/ADR-RES and in the data set with OVCAR-4 was inactive. Also, the IC50 in data set [1] was found to be 200 nM.

As for `Cc1c[nH]c2ncnc(N3C=C(c4cncn4C)SCC3)c12`, the outcome in the data set on MOLT-4, with MDA-MB-468 and in the data set with SR was Active. For the same molecule, the GI50 in the data set on LOX IMVI was over 1000 nM. Also, the result in the data set with NCI/ADR-RES and in the data set with OVCAR-4 was inactive. In addition, the IC50 came to 8200 nM in data set [8] and 92 nM in data set [1].

On to `Cn1cncc1C1=CN(c2ncnc3[nH]ccc23)CCS1`, for which the result in the data set on MOLT-4, in the data set on MDA-MB-468 and in the data set on SR was Active. The GI50 in the data set on LOX IMVI is over 1000 nM. The outcome with NCI/ADR-RES and in the data set on OVCAR-4 was inactive. The half-maximal inhibitory concentration (IC50) was over 10000 nM in [8] and 150 nM in [1].

With `C1=C(C2=CN(c3ncnc4[nH]ccc34)CCS2)CCNC1`, the outcome in the data set with MOLT-4, with MDA-MB-468 and in the data set with SR was Active. Also, the GI50 with LOX IMVI was over 1000 nM. Besides, the result in the data set with NCI/ADR-RES and in the data set with OVCAR-4 was inactive.

On to `Cn1cnc(Br)c1C1=CN(c2ncnc3[nH]cnc23)CCS1`, for which the Activity result in the data set filed under Homo sapiens [7] was “Dose-dependent-effect”. In addition, the outcome with MOLT-4, in the data set with MDA-MB-468 and in the data set on SR was Active. For the same molecule, in the data set with LOX IMVI, the GI50 was over 1000 nM. Besides, the outcome with NCI/ADR-RES and in the data set on OVCAR-4 was inactive. For the same molecule, the ΔTm in the data set filed under Homo sapiens [9] came to 3.1 °C.

Consider `N[C@H]1CCCCN(C(=O)C2=CN(c3ncnc4[nH]ccc34)CCS2)C1`, for which, in [1], the IC50 is 570 nM.

As to `NCCCNC(=O)C1=CN(c2ncnc3[nH]ccc23)CCS1`, the IC50 in data set [1] was determined as 360 nM.

For the molecule `NCC1(NC(=O)C2=CN(c3ncnc4[nH]ccc34)CCS2)CCC1`, in [1], the IC50 came to 170 nM.

As for `C[C@@]1(N)CCCN(C(=O)C2=CN(c3ncnc4[nH]cnc34)CCS2)C1`, the IC50 in [1] turned out to be 62 nM.

Regarding `C[C@@]1(N)CCCN(C(=O)C2=CN(c3ccnc4[nH]ccc34)CCS2)C1`, the IC50 turned out to be 3600 nM in data set [8] and 16 nM in [1].

For `Cn1cc(C2=CN(c3ncnc4[nH]cnc34)CCS2)cn1`, in data set [1], the IC50 was found to be 2700 nM.

One may read the GI50 as the concentration giving 50% growth inhibition. By IC50 is commonly meant the concentration needed to halve the response being measured. Usually inhibition stands for the share of the control response that was lost under treatment. For orientation: ΔTm means the change in melting temperature against a reference sample.
